Target: recombinant human CYP3A4 enzyme (Homo sapiens, UniProt P08684)
Test: CYP3A4-Glo Screening System luminescent CYP3A4 inhibition assay
Conditions: for CYP3A4 inhibition activity (in words): compared with pterostilbene and ellipticine

Sequence of recombinant human CYP3A4 enzyme (P08684 whole entry): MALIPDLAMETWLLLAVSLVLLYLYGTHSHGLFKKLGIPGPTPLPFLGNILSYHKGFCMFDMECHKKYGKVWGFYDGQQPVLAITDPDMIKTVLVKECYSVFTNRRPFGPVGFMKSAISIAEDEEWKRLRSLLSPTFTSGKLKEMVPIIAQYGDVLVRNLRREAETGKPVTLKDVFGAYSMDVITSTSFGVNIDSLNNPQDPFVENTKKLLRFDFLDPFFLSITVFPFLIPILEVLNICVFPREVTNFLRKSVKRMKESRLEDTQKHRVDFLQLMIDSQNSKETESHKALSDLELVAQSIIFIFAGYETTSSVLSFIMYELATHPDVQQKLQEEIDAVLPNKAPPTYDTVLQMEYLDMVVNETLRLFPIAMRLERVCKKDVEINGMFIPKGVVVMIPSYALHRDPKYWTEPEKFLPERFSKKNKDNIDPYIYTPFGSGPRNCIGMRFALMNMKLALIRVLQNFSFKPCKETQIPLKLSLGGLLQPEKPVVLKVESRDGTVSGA

| IC50 [µM] | CYP3A4 inhibition activity (in words) | Structure (SMILES) |
| --- | --- | --- |
| 18.2 ± 1.72 | weaker | CC(C)=CCOc1c2ccoc2cc2oc(=O)ccc12 [Isoimperatorin] |
| 1.12 ± 0.056 |  | COc1cc(/C=C/c2ccc(O)cc2)cc(OC)c1 [Pterostilbene] |
| 14.8 ± 2.09 | weaker | O=C(/C=C/c1ccc(O)cc1)CC(=O)/C=C/c1ccc(O)cc1 [Bisdemethoxycurcumin] |

| Structure (SMILES) | IC50 [µM] | CYP3A4 inhibition activity (in words) |
| --- | --- | --- |
| Cc1c2ccncc2c(C)c2c1[nH]c1ccccc12 [Ellipticine] | 0.052 ± 0.003 |  |
